ChEMBL document CHEMBL4425161, “1α,2α-Epoxy-3β-hydroxy oleanolic acid derivatives regulation of the metabolism, haemolysis and β-lactamase gene expression in vitro and their structure-microbicidal activity relationship” (2016)
In brackets after ≈: the same amount, converted by molar mass. Activity calls are given as the source filed them. The calls are words filed in the database; no cut-off is given here.

How the values were obtained:
Escherichia coli [1] = assay: Antibacterial activity against Escherichia coli ATCC 25922 assessed as bacterial growth inhibition after 8 hrs by turbidimetric plate reader method; format: functional
Klebsiella pneumoniae [2] = assay: Upregulation of VEB gene expression in Klebsiella pneumoniae ATCC BAA-1705 at 50 umol/L after 8 hrs by semi-quantitative RT-PCR; format: functional, organism-based
Klebsiella pneumoniae [3] = assay: Antibacterial activity against Klebsiella pneumoniae ATCC BAA-1705 assessed as bacterial growth inhibition at 50 umol/L after 8 hrs by turbidimetric plate reader method; format: functional, organism-based
Acinetobacter baumannii [4] = assay: Antibacterial activity against Acinetobacter baumannii ATCC BAA-1710D assessed as bacterial growth inhibition after 8 hrs by turbidimetric plate reader method; format: functional
Klebsiella pneumoniae [5] = assay: Upregulation of PER-2 gene expression in Klebsiella pneumoniae ATCC BAA-1705 at 50 umol/L after 8 hrs by semi-quantitative RT-PCR; format: functional, organism-based
Klebsiella pneumoniae [6] = assay: Upregulation of IMP gene expression in Klebsiella pneumoniae ATCC BAA-1705 at 50 umol/L after 8 hrs by real time RT-PCR; format: functional, organism-based
Klebsiella pneumoniae [7] = assay: Downregulation of ldhD gene expression in Klebsiella pneumoniae ATCC BAA-1705 at 50 umol/L after 8 hrs by semi-quantitative RT-PCR; format: functional, organism-based
Klebsiella pneumoniae [8] = assay: Upregulation of GES gene expression in Klebsiella pneumoniae ATCC BAA-1705 at 50 umol/L after 8 hrs by real time RT-PCR; format: functional, organism-based
Klebsiella pneumoniae [9] = assay: Downregulation of ldhD gene expression in Klebsiella pneumoniae ATCC BAA-1705 at 50 umol/L after 8 hrs by real time RT-PCR; format: functional, organism-based
Klebsiella pneumoniae [10] = assay: Upregulation of VEB gene expression in Klebsiella pneumoniae ATCC BAA-1705 at 50 umol/L after 8 hrs by real time RT-PCR; format: functional, organism-based
Bacillus subtilis [11] = assay: Antibacterial activity against Bacillus subtilis ATCC 6051 assessed as bacterial growth inhibition after 8 hrs by turbidimetric plate reader method; format: functional
Klebsiella pneumoniae [12] = assay: Antibacterial activity against Klebsiella pneumoniae ATCC BAA-1705 assessed as bacterial growth inhibition after 8 hrs by turbidimetric plate reader method; format: functional; details: for MBC: ATCC BAA-1705, 8 h
Klebsiella pneumoniae [13] = assay: Upregulation of GES gene expression in Klebsiella pneumoniae ATCC BAA-1705 at 50 umol/L after 8 hrs by semi-quantitative RT-PCR; format: functional, organism-based
Klebsiella pneumoniae [14] = assay: Upregulation of IMP gene expression in Klebsiella pneumoniae ATCC BAA-1705 at 50 umol/L after 8 hrs by semi-quantitative RT-PCR; format: functional, organism-based
Klebsiella pneumoniae [15] = assay: Upregulation of PER-2 gene expression in Klebsiella pneumoniae ATCC BAA-1705 at 50 umol/L after 8 hrs by real time RT-PCR; format: functional, organism-based
Acinetobacter baumannii [16] = assay: Downregulation of GES gene expression in Acinetobacter baumannii ATCC BAA-1710D at 50 umol/L after 8 hrs by semi-quantitative RT-PCR; format: functional, organism-based
Acinetobacter baumannii [17] = assay: Upregulation of TEM gene expression in Acinetobacter baumannii ATCC BAA-1710D at 50 umol/L after 8 hrs by semi-quantitative RT-PCR; format: functional, organism-based
Acinetobacter baumannii [18] = assay: Downregulation of PER gene expression in Acinetobacter baumannii ATCC BAA-1710D at 50 umol/L after 8 hrs by semi-quantitative RT-PCR; format: functional, organism-based
Acinetobacter baumannii [19] = assay: Upregulation of CARB gene expression in Acinetobacter baumannii ATCC BAA-1710D at 50 umol/L after 8 hrs by real time RT-PCR; format: functional, organism-based
Acinetobacter baumannii [20] = assay: Upregulation of SHV gene expression in Acinetobacter baumannii ATCC BAA-1710D at 50 umol/L after 8 hrs by semi-quantitative RT-PCR; format: functional, organism-based
Acinetobacter baumannii [21] = assay: Upregulation of VEB gene expression in Acinetobacter baumannii ATCC BAA-1710D at 50 umol/L after 8 hrs by real time RT-PCR; format: functional, organism-based
Acinetobacter baumannii [22] = assay: Downregulation of PER gene expression in Acinetobacter baumannii ATCC BAA-1710D at 50 umol/L after 8 hrs by real time RT-PCR; format: functional, organism-based
Acinetobacter baumannii [23] = assay: Upregulation of SHV gene expression in Acinetobacter baumannii ATCC BAA-1710D at 50 umol/L after 8 hrs by real time RT-PCR; format: functional, organism-based
Acinetobacter baumannii [24] = assay: Upregulation of VEB gene expression in Acinetobacter baumannii ATCC BAA-1710D at 50 umol/L after 8 hrs by semi-quantitative RT-PCR; format: functional, organism-based
Acinetobacter baumannii [25] = assay: Antibacterial activity against Acinetobacter baumannii ATCC BAA-1710D assessed as bacterial growth inhibition at 50 umol/L after 8 hrs by turbidimetric plate reader method; format: functional, organism-based
Acinetobacter baumannii [26] = assay: Upregulation of CARB gene expression in Acinetobacter baumannii ATCC BAA-1710D at 50 umol/L after 8 hrs by semi-quantitative RT-PCR; format: functional, organism-based
Acinetobacter baumannii [27] = assay: Upregulation of TEM gene expression in Acinetobacter baumannii ATCC BAA-1710D at 50 umol/L after 8 hrs by real time RT-PCR; format: functional, organism-based
Acinetobacter baumannii [28] = assay: Downregulation of GES gene expression in Acinetobacter baumannii ATCC BAA-1710D at 50 umol/L after 8 hrs by real time RT-PCR; format: functional, organism-based
Escherichia coli [29] = assay: Downregulation of iroD gene expression in Escherichia coli ATCC 25922 at 50 umol/L after 8 hrs by semi-quantitative RT-PCR; format: functional, organism-based
Escherichia coli [30] = assay: Downregulation of iroD gene expression in Escherichia coli ATCC 25922 at 50 umol/L after 8 hrs by real time RT-PCR; format: functional, organism-based
Escherichia coli [31] = assay: Upregulation of cysB gene expression in Escherichia coli ATCC 25922 at 50 umol/L after 8 hrs by semi-quantitative RT-PCR; format: functional, organism-based
Bacillus subtilis [32] = assay: Downregulation of yqhB gene expression in Bacillus subtilis ATCC 6051 at 50 umol/L after 8 hrs by real time RT-PCR; format: functional, organism-based
Bacillus subtilis [33] = assay: Downregulation of yqhC gene expression in Bacillus subtilis ATCC 6051 at 50 umol/L after 8 hrs by real time RT-PCR; format: functional, organism-based
Bacillus subtilis [34] = assay: Downregulation of yqhC gene expression in Bacillus subtilis ATCC 6051 at 50 umol/L after 8 hrs by semi-quantitative RT-PCR; format: functional, organism-based
Escherichia coli [35] = assay: Antibacterial activity against Escherichia coli ATCC 25922 assessed as bacterial growth inhibition at 50 umol/L after 8 hrs by turbidimetric plate reader method; format: functional, organism-based
Escherichia coli [36] = assay: Upregulation of acrA gene expression in Escherichia coli ATCC 25922 at 50 umol/L after 8 hrs by semi-quantitative RT-PCR; format: functional, organism-based
Escherichia coli [37] = assay: Upregulation of cysB gene expression in Escherichia coli ATCC 25922 at 50 umol/L after 8 hrs by real time RT-PCR; format: functional, organism-based
Escherichia coli [38] = assay: Upregulation of acrA gene expression in Escherichia coli ATCC 25922 at 50 umol/L after 8 hrs by real time RT-PCR relative to gapA; format: functional, organism-based
Escherichia coli [39] = assay: Downregulation of tsh gene expression in Escherichia coli ATCC 25922 at 50 umol/L after 8 hrs by semi-quantitative RT-PCR; format: functional, organism-based
Bacillus subtilis [40] = assay: Downregulation of yhdT gene expression in Bacillus subtilis ATCC 6051 at 50 umol/L after 8 hrs by real time RT-PCR; format: functional, organism-based
Bacillus subtilis [41] = assay: Downregulation of yqhB gene expression in Bacillus subtilis ATCC 6051 at 50 umol/L after 8 hrs by semi-quantitative RT-PCR; format: functional, organism-based
Bacillus subtilis [42] = assay: Antibacterial activity against Bacillus subtilis ATCC 6051 assessed as bacterial growth inhibition at 50 umol/L after 8 hrs by turbidimetric plate reader method; format: functional, organism-based
Escherichia coli [43] = assay: Downregulation of tsh gene expression in Escherichia coli ATCC 25922 at 50 umol/L after 8 hrs by real time RT-PCR; format: functional, organism-based
Bacillus subtilis [44] = assay: Downregulation of yhdT gene expression in Bacillus subtilis ATCC 6051 at 50 umol/L after 8 hrs by semi-quantitative RT-PCR; format: functional, organism-based

SMILES	growth inhibition (GI) (Escherichia coli [1])	Activity (Klebsiella pneumoniae [2])	growth inhibition (GI) (Klebsiella pneumoniae [3])	growth inhibition (GI) (Acinetobacter baumannii [4])	Activity (Klebsiella pneumoniae [5])	Activity (Klebsiella pneumoniae [6])	Activity (Klebsiella pneumoniae [7])	Activity (Klebsiella pneumoniae [8])	Activity (Klebsiella pneumoniae [9])	Activity (Klebsiella pneumoniae [10])	growth inhibition (GI) (Bacillus subtilis [11])	growth inhibition (GI) (Klebsiella pneumoniae [12])	MBC (Klebsiella pneumoniae [12])	Activity (Klebsiella pneumoniae [13])	Activity (Klebsiella pneumoniae [14])	Activity (Klebsiella pneumoniae [15])	further results
CCOC(=O)[C@]12CCC(C)(C)C[C@H]1C1=CC[C@@H]3[C@@]4(C)[C@H]5O[C@H]5[C@H](O)C(C)(C)[C@@H]4CC[C@@]3(C)[C@]1(C)CC2	Dose-dependent effect	Active	Active	Dose-dependent effect	Active	Active	Active	inactive	Active	Active	Dose-dependent effect	Dose-dependent effect	1.8 µM (≈ 0.898 µg/mL)	inactive	Active	Active	
CCCOC(=O)[C@]12CCC(C)(C)C[C@H]1C1=CC[C@@H]3[C@@]4(C)[C@H]5O[C@H]5[C@H](O)C(C)(C)[C@@H]4CC[C@@]3(C)[C@]1(C)CC2	Dose-dependent effect	Active	Active	Dose-dependent effect	Active	Active	Active	inactive	Active	Active	Dose-dependent effect	Dose-dependent effect	1.5 µM (≈ 0.769 µg/mL)	inactive	Active	Active	
CC(=O)O[C@H]1[C@@H]2O[C@@H]2[C@]2(C)[C@H]3CC=C4[C@@H]5CC(C)(C)CC[C@]5(C(=O)O)CC[C@@]4(C)[C@]3(C)CC[C@H]2C1(C)C	Dose-dependent effect			Dose-dependent effect							Dose-dependent effect	Dose-dependent effect					Activity (Acinetobacter baumannii [16]): Active; Activity (Acinetobacter baumannii [17]): Active; Activity (Acinetobacter baumannii [18]): Active; Activity (Acinetobacter baumannii [19]): Active; Activity (Acinetobacter baumannii [20]): Active; MBC (Acinetobacter baumannii [4]): 2.8 µM (≈ 1.44 µg/mL); Activity (Acinetobacter baumannii [21]): Active; Activity (Acinetobacter baumannii [22]): Active; Activity (Acinetobacter baumannii [23]): Active; Activity (Acinetobacter baumannii [24]): Active; growth inhibition (GI) (Acinetobacter baumannii [25]): Active; Activity (Acinetobacter baumannii [26]): Active; Activity (Acinetobacter baumannii [27]): Active; Activity (Acinetobacter baumannii [28]): Active
CC1(C)CC[C@]2(C(=O)OCc3ccccc3C#N)CC[C@]3(C)C(=CC[C@@H]4[C@@]5(C)[C@H]6O[C@H]6[C@H](O)C(C)(C)[C@@H]5CC[C@]43C)[C@@H]2C1	Dose-dependent effect			Dose-dependent effect							Dose-dependent effect	Dose-dependent effect					MBC (Escherichia coli [1]; ATCC 25922, 8 h): 5.3 µM (≈ 3.1 µg/mL); Activity (Escherichia coli [29]): Active; Activity (Escherichia coli [30]): Active; Activity (Escherichia coli [31]): Active; Activity (Bacillus subtilis [32]): Active; Activity (Bacillus subtilis [33]): Active; MBC (Bacillus subtilis [11]; ATCC 6051, 8 h): 2 µM (≈ 1.17 µg/mL); Activity (Bacillus subtilis [34]): Active; growth inhibition (GI) (Escherichia coli [35]): Active; Activity (Escherichia coli [36]): Active; Activity (Escherichia coli [37]): Active; Activity (Escherichia coli [38]): Active; Activity (Escherichia coli [39]): Active; Activity (Bacillus subtilis [40]): Active; Activity (Bacillus subtilis [41]): Active; growth inhibition (GI) (Bacillus subtilis [42]): Active; Activity (Escherichia coli [43]): Active; Activity (Bacillus subtilis [44]): Active
